Key:
Assay type in all cases: cell-based, Dickeya dadantii 3937 (Ech3937)
hrpN promoter = hrpN promoter activity, GFP reporter plasmid phrpN, flow cytometry (FACS); conditions: for GFP intensity (Mean Fluorescence Intensity) of Ech138 (phrpN): iaaM mutant Ech138, MM + 0.1 mM OCA
hrpA promoter = hrpA promoter activity, GFP reporter plasmid phrpA, flow cytometry (FACS); conditions: for GFP intensity (Mean Fluorescence Intensity) of Ech-Rif (phrpA) / GFP intensity (Mean Fluorescence Intensity) of Ech137 (phrpA): MM + 0.1 mM OCA; for GFP intensity (Mean Fluorescence Intensity) of Ech137 (phrpA): gacA mutant Ech137
Description: (§1) FACS analysis of promoter activity of dspE, hrpA, hrpL, hrpN, and hrpS was carried out as described (Peng et al., 2006). Briefly, the wild-type Ech3937 and the mutant strains carrying the promoter reporter plasmid were grown on LB broth at 28° C. overnight and transferred to appropriate media. For FACS analysis, samples were collected by centrifugation, washed with 1× phosphate buffer saline (PBS) at 13,000 rpm for 1 min, and re-suspended in 1×PBS to ca 10^6 CFU/ml prior to being run in a FACS Calibur flow cytometer (BD Biosciences, CA). Three replicates were performed for each treatment.
To identify potential compounds that repress activation of T3SS, analogs and isomers of TCA and intermediates of salicylic acid and phenypropanoid biosynthesis pathways in plants were further screened for their effect on Ech3937 hrpA expression by flow cytometry (Table 9). A green fluorescent protein (GFP) reporter plasmid phrpA (pProbe-AT derivative with PCR fragment containing hrpA promoter region) was constructed, resulting in a transcriptional fusion of hrpA promoter with GFP gene. Bacterial cells containing phrpA plasmid were grown in MM supplemented with 0.1 mM of each compound. GFP intensity, which is a measurement of hrpA promoter activity, was measured by flow cytometry.

hrpL promoter = hrpL promoter activity, GFP reporter plasmid phrpL, flow cytometry (FACS); conditions: MM + 0.1 mM compound
Description: as §1
(§2) Since OCA and TCA induced the expression of hrpN, the effect of these two phenolic compounds on the expression of hrpA, hrpL, and hrpS was investigated further. […] GFP intensity was determined on gated populations of bacterial cells by flow cytometry and analyzed with the Cell Quest software (BD Biosciences, San Jose, Calif.). The lines labeled “1” stand for the GFP expression control base level of the Ech3937 containing pPROBE-AT vector; lines labeled “2” stand for the promoter activity of hrpS, hrpL, hrpA and hrpN in Ech3937 in MM; lines labeled “3” stand for the promoter activity of Ech3937 in MM supplemented with 0.1 mM OCA; lines labeled “4” stand for the promoter activity of hrpL mutant WPP96 in MM; lines labeled “5” stand for the promoter activity of hrpL mutant WPP96 in MM supplemented with 0.1 mM OCA. Values are representative of at least two experiments. […] Compared with MM alone, the average GFP fluorescence intensity of bacterial cells of Ech3937 (phrpA) was doubled when 0.1 mM of OCA and TCA were added to the medium (Table 4; FIG. 3). […] The mrp, whose protein product has an ATPase conserved domain (2e-06), was used as a reference gene in this study.

hrpS promoter = hrpS promoter activity, GFP reporter plasmid phrpS, flow cytometry (FACS); conditions: MM + 0.1 mM compound
Description: as §1, §2

hrpL mRNA = test: qRT-PCR relative mRNA level of hrpL; conditions: 0.1 mM OCA, 12 h of growth, P<0.01
Description: (§3) Bacterial strains were grown in MM. Total RNA from the bacterial cells was isolated by using the TRI reagent method (Sigma, Mo.) and treated with Turbo DNA-free DNase kits (Ambion, TX) as described (Peng et al., 2006). An iScript cDNA Synthesis Kit (Bio-Rad, CA) was used to synthesize cDNA from 0.5 μg of treated total RNA. The Real Master Mix (Eppendorf, Westbury, N.Y.) was used for qRT-PCR reaction to quantify the cDNA level of target genes in different samples. The rplU was used as the endogenous control for data analysis. qRT-PCR data were analyzed using Relative Expression Software Tool as described (Pfaffl, M. W., Horgan, G. W., and Dempfle, L. (2002) Relative expression software tool (REST) for group-wise comparison and statistical analysis of relative expression results in real-time PCR. Nucleic Acids Res 30:e36.).

dspE mRNA = test: qRT-PCR relative mRNA level of dspE; conditions: MM supplemented with 0.1 mM OCA (FIG. 4)
Description: as §3

hrpY mRNA = test: qRT-PCR relative mRNA level of hrpY; conditions: MM supplemented with OCA, p>0.5 (FIG. 4)
Description: as §3

gacA mRNA = test: qRT-PCR relative mRNA level of gacA; conditions: MM supplemented with OCA, p>0.5 (FIG. 4)
Description: as §3

[1] = MM + 0.1 mM compound, 12 h (Table 4)
[2] = hrpL mutant WPP96, MM + 0.1 mM compound, 12 h (Table 4)
[3] = hrpL mutant WPP96, 12 h (Table 4)

## O=C(O)/C=C/c1ccccc1O [OCA, o-coumaric acid]
hrpN promoter; 0.05 mM compound added to MM, 12 h and 24 h (FIGS. 2A, 2B)
  increase of average GFP fluorescence intensity of Ech3937 (phrpN) compared with MM alone: approximately 4 fold
hrpN promoter; 0.1 mM compound in MM, 12 h (FIG. 5)
  induction of hrpN expression in Ech3937 and in hrpX (WPP67), hrpY (WPP92), hrpS (WPP90) mutants: induced the expression of hrpN in Ech3937, but not in hrpX, hrpY, and hrpS mutants
hrpN promoter; MM + 0.1 mM OCA (MMOCA), 6 h (Table 5)
  GFP intensity (Mean Fluorescence Intensity) of Ech3937 (phrpN): 31 ± 3
hrpN promoter; MM + 0.1 mM OCA (MMOCA), 12 h (Table 5)
  GFP intensity (Mean Fluorescence Intensity) of Ech3937 (phrpN): 91 ± 8
hrpN promoter; MM + 0.1 mM OCA (MMOCA), 24 h (Table 5)
  GFP intensity (Mean Fluorescence Intensity) of Ech3937 (phrpN): 78 ± 8
hrpN promoter; [1]
  GFP intensity (Mean Fluorescence Intensity) of Ech3937 (phrpN): 94 ± 3
hrpN promoter; [2]
  GFP intensity (Mean Fluorescence Intensity) of WPP96 (phrpN): 3.3 ± 0.1
hrpN promoter; 6 h
  GFP intensity (Mean Fluorescence Intensity) of Ech138 (phrpN): 9.1 ± 1.6
hrpN promoter; 12 h
  GFP intensity (Mean Fluorescence Intensity) of Ech138 (phrpN): 33 ± 5
hrpN promoter; 24 h
  GFP intensity (Mean Fluorescence Intensity) of Ech138 (phrpN): 39 ± 5
hrpA promoter; 0.1 mM compound, 12 h
  average GFP fluorescence intensity of Ech3937 (phrpA) compared with MM alone: doubled
hrpA promoter; 6 h
  GFP intensity (Mean Fluorescence Intensity) of Ech-Rif (phrpA): 18 ± 0
  GFP intensity (Mean Fluorescence Intensity) of Ech137 (phrpA): 4.9 ± 0.1
hrpA promoter; 12 h
  GFP intensity (Mean Fluorescence Intensity) of Ech-Rif (phrpA): 51 ± 2
  GFP intensity (Mean Fluorescence Intensity) of Ech137 (phrpA): 5.9 ± 0.1
hrpA promoter; 24 h
  GFP intensity (Mean Fluorescence Intensity) of Ech-Rif (phrpA): 49 ± 1
  GFP intensity (Mean Fluorescence Intensity) of Ech137 (phrpA): 8.3 ± 0
hrpA promoter; MM + 0.1 mM compound, 6 h (Table 9)
  expression of hrpA, GFP intensity (Mean Fluorescence Intensity), Ech3937 carrying phrpA: 15.5 ± 1.1
hrpA promoter; [1]
  GFP intensity (Mean Fluorescence Intensity) of Ech3937 (phrpA): 82 ± 1
hrpA promoter; MM + 0.1 mM compound, 12 h (Table 9)
  expression of hrpA, GFP intensity (Mean Fluorescence Intensity), Ech3937 carrying phrpA: 115.5 ± 7.9
hrpA promoter; MM + 0.1 mM compound, 24 h (Table 9)
  expression of hrpA, GFP intensity (Mean Fluorescence Intensity), Ech3937 carrying phrpA: 225.8 ± 15.6
hrpA promoter; [2]
  GFP intensity (Mean Fluorescence Intensity) of WPP96 (phrpA): 6.5 ± 0.2
hrpL promoter; Ech3937, 12 h
  promoter activity of hrpL compared with MM alone: slightly higher promoter activity
hrpL promoter; 12 h (Table 4)
  GFP intensity (Mean Fluorescence Intensity) of Ech3937 (phrpL): 19 ± 0
hrpL promoter; [3]
  GFP intensity (Mean Fluorescence Intensity) of WPP96 (phrpL): 313 ± 29
hrpS promoter; 12 h
  GFP intensity of Ech3937 (phrpS) compared with MM alone: slightly lower GFP intensity
hrpS promoter; 12 h (Table 4)
  GFP intensity (Mean Fluorescence Intensity) of Ech3937 (phrpS): 56 ± 1
hrpS promoter; [3]
  GFP intensity (Mean Fluorescence Intensity) of WPP96 (phrpS): 350 ± 17
hrpL mRNA
  hrpL mRNA compared with MM alone (qRT-PCR): about 3 fold
dspE mRNA
  dspE mRNA compared with MM alone (qRT-PCR): significantly higher amount
hrpY mRNA
  hrpY gene expression, MM vs supplemented MM (qRT-PCR): No significant difference
gacA mRNA
  gacA gene expression, MM vs supplemented MM (qRT-PCR): No significant difference

From US20100249234A1, “METHODS OF REDUCING VIRULENCE IN BACTERIA” (UWM RESEARCH FOUNDATION, INC., priority 2007, published 2010)
